Laboratory results as given in US11046716B2, “Beta-lactamase inhibitors” (priority 2015, dated 2021).

Assays:
[1] = tested on: K. pneumoniae expressing the class A carbapenemase KPC-2 and the class B carbapenemase VIM-4; test: Broth microdilution MIC assay with meropenem, K. pneumoniae KPC-2 and VIM-4; type: cell-based; conditions: Fixed Mero (meropenem) 4 μg/mL; K. p. A-1797 KPC-2 VIM-4
Description: (§1) To determine the ability of test compounds to potentiate the inhibition of the growth of bacterial strains that produce beta-lactamase enzymes in the presence of a β-lactam antibiotic, classic cell based broth microdilution MIC assays were employed. Six bacteria strains producing beta-lactamase enzymes were used: E. coli expressing the Class A Extended Spectrum Beta-Lactamase (ESBL) CTX-M-15, E. cloacae expressing the Class C P99, K. pneumoniae expressing the Class A carbapenemase KPC-2, P. aeruginosa expressing the Class B carbapenemase VIM-2, K. pneumoniae expressing the class A carbapenemase KPC-2 and the class B carbapenemase VIM-4, and K. pneumoniae producing the Class D carbapenemase OXA-48. The assay was conducted in Cation Adjusted Mueller Hinton Broth (CAMHB, BD #212322, BD Diagnostic Systems, Sparks, Md.). Bacteria strains were grown for 3-5 hours in CAMBH broth. Test compounds (Examples 1-94) were added to a microtiter plate in 2-fold serial dilutions in CAMHB in a final concentration range of 16 μg/mL to 0.125 μg/ml. An overlay of CAMHB containing a Beta-lactam was added to the compounds at a final static concentration of 4 μg/ml. […] In addition to the titration of test compounds the MICs of a panel of control beta-lactams is also tested to ensure the strains are behaving consistently from test to test. Once the test compound and antibiotics are added the plates can be inoculated according to CLSI broth microdilution method. After inoculation the plates are incubated for 16-20 hours at 37° C. then the Minimal Inhibitory Concentration (MIC) of the test compound is determined visually.
(§2) Using the methodology described above, examples of the current invention were evaluated for their ability to inhibit the growth of β-lactamase-producing bacteria in the presence of a β-lactam antibiotic.

[2] = tested on: P. aeruginosa expressing the Class B carbapenemase VIM-2; test: Broth microdilution MIC assay with meropenem, P. aeruginosa VIM-2; type: cell-based; conditions: Fixed Mero (meropenem) 4 μg/mL; P. aerug. 2775 VIM-2
Description: as §1, §2

OXA-48 = OXA-48 (UniProt Q6XEC0); test: β-lactamase enzyme inhibition assay, Class D oxacillinase; type: biochemical; conditions: read-out: OXA-48
[3] = tested on: E. coli expressing the Class A Extended Spectrum Beta-Lactamase (ESBL) CTX-M-15; test: Broth microdilution MIC assay with ceftazidime, E. coli CTX-M-15; type: cell-based; conditions: Fixed CAZ (ceftazidime) 4 μg/mL; E. coli ESBL4 CTX-M-15
Description: as §1, §2

KPC-2 = target: T1, KPC-2 (Klebsiella pneumoniae, UniProt Q9F663); test: β-lactamase enzyme inhibition assay, KPC-2 (imipenem substrate); type: biochemical; conditions: Class A; imipenem substrate, 300 nm; read-out: KPC-2
T1 construct: made in house; host or cells: E. coli BL21(DE3)
T1 sequence (Q9F663 25-293, looked up): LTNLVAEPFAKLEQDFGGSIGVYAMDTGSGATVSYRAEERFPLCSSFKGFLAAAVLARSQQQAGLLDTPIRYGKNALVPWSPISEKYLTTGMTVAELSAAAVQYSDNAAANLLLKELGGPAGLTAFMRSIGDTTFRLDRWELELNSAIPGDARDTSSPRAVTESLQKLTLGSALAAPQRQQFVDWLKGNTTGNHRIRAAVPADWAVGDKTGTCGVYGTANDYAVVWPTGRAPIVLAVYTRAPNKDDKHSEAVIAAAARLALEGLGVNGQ
Protocol: (§3) For SHV-5, Kpc-2, p99AmpC and OXA-1 β-lactamases, E. coli BL21(DE3) bacterial cells carrying expression plasmids (expressed as native untagged proteins) for the individual β-lactamases were grown in 1 L of Superbroth (Teknova Inc. Hollister, Calif.) supplemented with 100 μg/ml kanamycin selection and 1×5052 (0.5% glycerol, 0.05% glucose and 0.2% α-lactose) at 35° C. for 18-20 hours. Cells were harvested by centrifugation (4,000×g, 4° C., 20 min), resuspended in 50 ml of 10 mM HEPES pH 7.5 ( 1/20 of the initial volume). The cells were lysed by sonication (5 pulses of 45 seconds) at 45 W on ice. The lysates were clarified by centrifugation at 10,000×g for 40 minutes at 4° C. Samples were diluted 5-fold in 50 mM sodium acetate pH 5.0, stored overnight at 4° C., after which they were centrifuged at 10,000×g for 30 minutes to clarify, and filtered through 0.45 μm filters. The samples were loaded onto a 5 ml Capto S sepharose cation exchange column (GE Healthcare) pre-equilibrated with 50 mM sodium acetate pH 5.0. The column was washed with 5 column volumes of 50 mM sodium acetate pH 5.0 to wash out unbound protein and a linear gradient of NaCl (0 to 500 mM) was used to elute the protein (over 16 CV) from the column. Fractions were assayed for β-lactamase activity using Centa (Calbiochem, Gibbstown, N.J.) or Nitrocefin (EMD Millipore chemicals, Darmstadt, Germany) as a reporter β-lactamase substrate for activity in the isolated fractions. Active fractions were pooled, concentrated and further purified by gel filtration chromatography on a Superdex 75 prep grade gel filtration column (GE Healthcare, Piscataway, N.J.) pre-equilibrated in 50 mM Hepes pH 7.5, 150 mM NaCl. Active fractions were pooled concentrated, quantitated by BCA protein determination (Thermo Scientific, Rockford, Ill.), dialyzed into PBS and frozen at −80° C. in 20% glycerol until use.
(§4) An equal volume of diluted enzyme stock was added, and the plates were incubated at 37° C. for 15 min. Nitrocefin was used as substrate for p99 AmpC, VIM-2 and OXA-1 and dispensed into each well at a final concentration of 100 μM. Absorbance at 486 nm was immediately monitored for 10 min using a Biotek Powerwave XS2 microplate spectrophotometer using the GEN5 software package (Biotek Instruments, Winooski Vt.). In an analogous fashion, imipenem was used as substrate for Kpc-2 and Cefotaxime was used for SHV-5, while changes in absorbance upon hydrolysis of the β-lactam ring were monitored at 300 nm and 260 nm respectively in UV-transparent 96-well microtiter assay plates. Maximum rates of hydrolysis were compared to those in control wells (without inhibitors), and percentages of enzyme inhibition were calculated for each concentration of inhibitor. The concentration of inhibitor needed to reduce the initial rate of hydrolysis of substrate by 50% (IC50) was calculated as the residual activity of β-lactamase at 486 nm using GraFit version 7 kinetics software package (Erithacus Software, Surrey, UK).
(§5) Using the methodology described above, examples of the current invention were evaluated for their ability to inhibit β-lactamase enzymes from all four Ambler classifications (A through D). […] NT=Not tested.

VIM-2 = target: T2, VIM-2 (Escherichia coli, UniProt Q5U7L7); test: β-lactamase enzyme inhibition assay, VIM-2 (nitrocefin substrate); type: biochemical; conditions: Class B; nitrocefin substrate, 486 nm; read-out: VIM-2
T2 construct: made in house; host or cells: E. coli BL21(DE3)
Protocol: For Vim-2 metallo β-lactamase, the procedure was identical with the following exceptions, first the protein was not pH adjusted to pH 5 with 50 mM sodium acetate, second, the chromatography step was changed to a 5 ml Q sepharose anion exchange column pre-equilibrated with 50 mM Hepes pH 7.5, and elution of the protein was achieved by a linear gradient of NaCl (0-600 mM). Finally, the VIM-2 purification required a second run (3rd step) on the Q sepharose anion exchange column to achieve acceptable purity (>90%).
as §4, §5

[4] = tested on: K. pneumoniae expressing the Class A carbapenemase KPC-2; test: Broth microdilution MIC assay with meropenem, K. pneumoniae KPC-2; type: cell-based; conditions: Fixed Mero (meropenem) 4 μg/mL; K. p. 156319 KPC-3
Description: as §1, §2

[5] = tested on: E. cloacae expressing the Class C P99; test: Broth microdilution MIC assay with ceftazidime, E. cloacae P99; type: cell-based; conditions: Fixed CAZ (ceftazidime) 4 μg/mL; E. cl. 144200 p99 AmpC
Description: as §1, §2

SHV-5 = target: T3, SHV-5 (Klebsiella pneumoniae, UniProt P0A3M1); test: β-lactamase enzyme inhibition assay, SHV-5 (cefotaxime substrate); type: biochemical
T3 construct: made in house; host or cells: E. coli BL21(DE3)
T3 sequence (P0A3M1 22-286): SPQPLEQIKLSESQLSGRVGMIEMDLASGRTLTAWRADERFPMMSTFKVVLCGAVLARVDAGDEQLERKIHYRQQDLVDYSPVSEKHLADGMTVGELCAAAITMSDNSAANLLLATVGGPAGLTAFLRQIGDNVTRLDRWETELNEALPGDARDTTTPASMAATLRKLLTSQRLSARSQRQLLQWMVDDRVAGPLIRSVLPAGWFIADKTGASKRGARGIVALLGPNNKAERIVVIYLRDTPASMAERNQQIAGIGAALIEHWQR
Protocol: as §3, §4, §5

AmpC = target: T4, AmpC (Enterobacter cloacae, UniProt P05364); test: β-lactamase enzyme inhibition assay, p99 AmpC (nitrocefin substrate); type: biochemical
T4 construct: made in house; host or cells: E. coli BL21(DE3)
T4 sequence (P05364 21-381): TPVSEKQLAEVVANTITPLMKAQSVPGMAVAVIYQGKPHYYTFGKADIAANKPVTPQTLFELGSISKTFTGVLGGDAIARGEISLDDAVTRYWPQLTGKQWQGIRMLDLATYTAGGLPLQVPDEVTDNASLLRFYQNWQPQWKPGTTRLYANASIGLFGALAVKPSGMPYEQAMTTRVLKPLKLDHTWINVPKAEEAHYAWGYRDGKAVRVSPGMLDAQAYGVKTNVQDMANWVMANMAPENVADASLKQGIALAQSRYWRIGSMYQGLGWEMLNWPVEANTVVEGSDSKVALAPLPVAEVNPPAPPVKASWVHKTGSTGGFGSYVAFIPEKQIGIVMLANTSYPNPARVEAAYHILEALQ
Protocol: as §3, §4, §5

[6] = tested on: K. pneumoniae producing the Class D carbapenemase OXA-48; test: Broth microdilution MIC assay with meropenem, K. pneumoniae OXA-48; type: cell-based; conditions: Fixed Mero (meropenem) 4 μg/mL; K. p. 11978 OXA-48
Description: as §1, §2

Compound | MIC (μg/mL) of Exemplary Compounds in presence of fixed β-lactams: K. p. A-1797 KPC-2 VIM-4 [1] | MIC (μg/mL) of Exemplary Compounds in presence of fixed β-lactams: P. aerug. 2775 VIM-2 [2] | IC50 (OXA-48) [nM] | MIC (μg/mL) of Exemplary Compounds in presence of fixed β-lactams: E. coli ESBL4 CTX-M-15 [3] | IC50 (KPC-2) [nM] | IC50 (VIM-2) [nM] | MIC (μg/mL) of Exemplary Compounds in presence of fixed β-lactams: K. p. 156319 KPC-3 [4] | MIC (μg/mL) of Exemplary Compounds in presence of fixed β-lactams: E. cl. 144200 p99 AmpC [5] | IC50 (SHV-5) [nM] | IC50 (AmpC) [nM] | MIC (μg/mL) of Exemplary Compounds in presence of fixed β-lactams: K. p. 11978 OXA-48 [6]
CCn1nnnc1CC(=O)N[C@H]1Cc2cccc(C(=O)O)c2OB1O [Example 54, (R)-3-(2-(1-ethyl-1H-tetrazol-5-yl)acetamido)-2-hydroxy-3,4-dihydro-2H-benzo[e][1,2]oxaborinine-8-carboxylic acid] | B (B represents an MIC between 1 and 16 μg/mL inclusive) | B (B represents an MIC between 1 and 16 μg/mL inclusive) | 1000 to 10000 | C (C represents an MIC of <1 μg/mL) | < 100 | 100 to 1000 | B (B represents an MIC between 1 and 16 μg/mL inclusive) | C (C represents an MIC of <1 μg/mL) | < 100 | < 100 | B (B represents an MIC between 1 and 16 μg/mL inclusive)
O=C(Cn1cc(-c2ccccn2)nn1)N[C@H]1Cc2cccc(C(=O)O)c2OB1O [Example 10, (R)-2-hydroxy-3-(2-(4-(pyridin-2-yl)-1H-1,2,3-triazol-1-yl)acetamido)-3,4-dihydro-2H-benzo[e][1,2]oxaborinine-8-carboxylic acid] | A (A represents an MIC>16 μg/mL) | – | < 100 | C (C represents an MIC of <1 μg/mL) | < 100 | 1000 to 10000 | B (B represents an MIC between 1 and 16 μg/mL inclusive) | C (C represents an MIC of <1 μg/mL) | < 100 | < 100 | B (B represents an MIC between 1 and 16 μg/mL inclusive)
NCc1nnnn1CC(=O)N[C@H]1Cc2cccc(C(=O)O)c2OB1O [Example 17, (R)-3-(2-(5-(aminomethyl)-1H-tetrazol-1-yl)acetamido)-2-hydroxy-3,4-dihydro-2H-benzo[e][1,2]oxaborinine-8-carboxylic acid] | B (B represents an MIC between 1 and 16 μg/mL inclusive) | C (C represents an MIC of <1 μg/mL) | 100 to 1000 | C (C represents an MIC of <1 μg/mL) | < 100 | < 100 | B (B represents an MIC between 1 and 16 μg/mL inclusive) | C (C represents an MIC of <1 μg/mL) | – | – | B (B represents an MIC between 1 and 16 μg/mL inclusive)
O=C(Cn1cncn1)N[C@H]1Cc2cccc(C(=O)O)c2OB1O [Example 18, (R)-3-(2-(1H-1,2,4-triazol-1-yl)acetamido)-2-hydroxy-3,4-dihydro-2H-benzo[e][1,2]oxaborinine-8-carboxylic acid] | B (B represents an MIC between 1 and 16 μg/mL inclusive) | B (B represents an MIC between 1 and 16 μg/mL inclusive) | 1000 to 10000 | C (C represents an MIC of <1 μg/mL) | < 100 | 100 to 1000 | C (C represents an MIC of <1 μg/mL) | C (C represents an MIC of <1 μg/mL) | – | – | B (B represents an MIC between 1 and 16 μg/mL inclusive)
Cc1nnn(CC(=O)N[C@H]2Cc3cccc(C(=O)O)c3OB2O)c1CN [Example 120, (R)-3-(2-(5-(aminomethyl)-4-methyl-1H-1,2,3-triazol-1-yl)acetamido)-2-hydroxy-3,4-dihydro-2H-benzo[e][1,2]oxaborinine-8-carboxylic acid] | B (B represents an MIC between 1 and 16 μg/mL inclusive) | – | < 100 | C (C represents an MIC of <1 μg/mL) | < 100 | < 100 | B (B represents an MIC between 1 and 16 μg/mL inclusive) | C (C represents an MIC of <1 μg/mL) | 100 to 1000 | < 100 | B (B represents an MIC between 1 and 16 μg/mL inclusive)
